Experimental data: ChEMBL document CHEMBL1201862, “PubChem BioAssay data set” (2004)
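Results reflect a 48-hour exposure of cells in 96-well plates to compound at five concentrations. Here, GI50 denotes the concentration required for 50% inhibition of growth.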 Calls of active or inactive are those of the source. Cut-off read from the data, not from the text of the source: active = GI50 up to about 1.1 µM and inactive = higher. Non-standard residues stand in square brackets, D forms with d. Residues, ends and D or L forms follow the SMILES beside them.

Assays:
Assay in all cases: growth of human tumour cells (NCI), 48 h
NCI-H460 = system: NCI-H460
OVCAR-3 = system: OVCAR-3
UO-31 = system: UO-31
SK-MEL-28 = system: SK-MEL-28
KM12 = system: KM12
CAKI-1 = system: CAKI-1
UACC-257 = system: UACC-257
SW-620 = system: SW-620
HCT-15 = system: HCT-15
K562 = system: K562
OVCAR-5 = system: OVCAR-5
HOP-62 = system: HOP-62
OVCAR-4 = system: OVCAR-4
NCI-H522 = system: NCI-H522
HCT-116 = system: HCT-116
OVCAR-8 = system: OVCAR-8
SN12C = system: SN12C
RXF 393 = system: RXF 393

Row | Compound | GI50 (NCI-H460) | GI50 (OVCAR-3) | GI50 (UO-31) | GI50 (SK-MEL-28) | GI50 (KM12) | GI50 (CAKI-1) | GI50 (UACC-257) | GI50 (SW-620) | GI50 (HCT-15) [µM] | GI50 (K562) | GI50 (OVCAR-5) | GI50 (HOP-62) | GI50 (OVCAR-4) | GI50 (NCI-H522) | GI50 (HCT-116) | GI50 (OVCAR-8) | GI50 (SN12C) | GI50 (RXF 393)
1 | CCC1C(=O)OCc2c1cc1n(c2=O)C(CC)c2c-1nc1ccccc1c2Cl (centres undefined) | 15.1 µM (inactive) | 20.3 µM (inactive) | 23.9 µM (inactive) | 35 µM (inactive) | 24.6 µM (inactive) | 23 µM (inactive) | 29.6 µM (inactive) | 24 µM (inactive) | 36.6 | 27.9 µM (inactive) | 23.1 µM (inactive) | 20.7 µM (inactive) | 22.4 µM (inactive) | 15 µM (inactive) | – | – | – | –
2 | CCOc1ccc(NC(=O)CC2SC(N)=NC2=O)cc1 (centres undefined) | > 100 µM (inactive) | > 100 µM (inactive) | > 100 µM (inactive) | > 100 µM (inactive) | > 100 µM (inactive) | – | > 100 µM (inactive) | > 100 µM (inactive) | – | – | > 100 µM (inactive) | > 100 µM (inactive) | > 100 µM (inactive) | – | > 100 µM (inactive) | > 100 µM (inactive) | > 100 µM (inactive) | > 100 µM (inactive)
3 | CCOc1cc(NC(C)=O)ccc1C(=O)NN1C(=O)/C(=C/c2cc(OC)c(OC)c(OC)c2)N=C1c1ccccc1 | 91.6 µM (inactive) | > 100 µM (inactive) | > 100 µM (inactive) | > 100 µM (inactive) | 37.2 µM (inactive) | > 100 µM (inactive) | > 100 µM (inactive) | > 100 µM (inactive) | > 100 | > 100 µM (inactive) | > 100 µM (inactive) | – | > 100 µM (inactive) | 28.3 µM (inactive) | > 100 µM (inactive) | 63.5 µM (inactive) | > 100 µM (inactive) | –
4 | COC(=O)c1nc(N)nc(C(=O)OC)c1C(=O)c1ccccc1 | > 100 µM (inactive) | > 100 µM (inactive) | > 100 µM (inactive) | > 100 µM (inactive) | > 100 µM (inactive) | – | > 100 µM (inactive) | > 100 µM (inactive) | > 100 | > 100 µM (inactive) | > 100 µM (inactive) | – | – | > 100 µM (inactive) | > 100 µM (inactive) | > 100 µM (inactive) | > 100 µM (inactive) | > 100 µM (inactive)
5 | COc1ccc(OC(C(=O)O)C(C)C)c2c1CCCC2=O (centres undefined) | > 100 µM (inactive) | > 100 µM (inactive) | > 100 µM (inactive) | > 100 µM (inactive) | > 100 µM (inactive) | > 100 µM (inactive) | > 100 µM (inactive) | > 100 µM (inactive) | > 100 | > 100 µM (inactive) | > 100 µM (inactive) | > 100 µM (inactive) | > 100 µM (inactive) | > 100 µM (inactive) | > 100 µM (inactive) | > 100 µM (inactive) | > 100 µM (inactive) | –
6 | CC(C)(C)C1=CC(=N/N=c2\scc(-c3ccccc3)n2Cc2ccccc2)C=C(C(C)(C)C)C1=O | > 100 µM (inactive) | > 100 µM (inactive) | > 100 µM (inactive) | > 100 µM (inactive) | – | > 100 µM (inactive) | > 100 µM (inactive) | > 100 µM (inactive) | > 100 | > 100 µM (inactive) | > 100 µM (inactive) | > 100 µM (inactive) | > 100 µM (inactive) | – | > 100 µM (inactive) | > 100 µM (inactive) | > 100 µM (inactive) | > 100 µM (inactive)
7 | CC1=C2O[B-](c3ccccc3)(c3ccccc3)[O+]=C2C=CN1 | 49.9 µM (inactive) | 2 µM (inactive) | 4.46 µM (inactive) | 29.6 µM (inactive) | – | 21.8 µM (inactive) | 27.7 µM (inactive) | 44.9 µM (inactive) | 32.3 | 40.4 µM (inactive) | – | 25.9 µM (inactive) | 64.7 µM (inactive) | – | 42.6 µM (inactive) | 41.2 µM (inactive) | 45.7 µM (inactive) | 26.4 µM (inactive)
8 | COc1ccc(N2C(=O)[C@@H]3[C@@H]4CC(C)CC[C@@H]4c4c([nH]c5ccccc45)[C@@H]3C2=O)cc1 (some centres undefined) | 13.5 µM (inactive) | 19.8 µM (inactive) | 17 µM (inactive) | 36 µM (inactive) | 50.1 µM (inactive) | 29 µM (inactive) | 53.8 µM (inactive) | 13.1 µM (inactive) | 15.3 | 30.7 µM (inactive) | > 77.6 µM (inactive) | 12.6 µM (inactive) | 18 µM (inactive) | 19.4 µM (inactive) | 6.44 µM (inactive) | 12.8 µM (inactive) | 11.2 µM (inactive) | –
9 | CN/N=C(/Cc1occc(=O)c1O)C(=O)Nc1ccc(C)c(C)c1 | > 100 µM (inactive) | > 100 µM (inactive) | > 100 µM (inactive) | > 100 µM (inactive) | > 100 µM (inactive) | > 100 µM (inactive) | > 100 µM (inactive) | > 100 µM (inactive) | > 100 | > 100 µM (inactive) | > 100 µM (inactive) | > 100 µM (inactive) | > 100 µM (inactive) | > 100 µM (inactive) | > 100 µM (inactive) | > 100 µM (inactive) | > 100 µM (inactive) | –
10 | CN(Cc1ccccc1)C(=NC#N)N(C)Cc1ccccc1 | > 100 µM (inactive) | > 100 µM (inactive) | > 100 µM (inactive) | > 100 µM (inactive) | > 100 µM (inactive) | > 100 µM (inactive) | > 100 µM (inactive) | > 100 µM (inactive) | > 100 | – | – | > 100 µM (inactive) | > 100 µM (inactive) | > 100 µM (inactive) | > 100 µM (inactive) | > 100 µM (inactive) | > 100 µM (inactive) | –
11 | O=C(Nc1c(Cl)cc([N+](=O)[O-])cc1Cl)C(=O)C(C1OC(=O)c2ccccc21)[N+](=O)[O-] (centres undefined) | > 100 µM (inactive) | > 100 µM (inactive) | 23.5 µM (inactive) | > 100 µM (inactive) | > 100 µM (inactive) | > 100 µM (inactive) | > 100 µM (inactive) | > 100 µM (inactive) | > 100 | > 100 µM (inactive) | > 100 µM (inactive) | 81.8 µM (inactive) | > 100 µM (inactive) | – | > 100 µM (inactive) | > 100 µM (inactive) | > 100 µM (inactive) | > 100 µM (inactive)
12 | NC12CC3CC(C1)CC(Cl)(C3)C2 | > 100 µM (inactive) | > 100 µM (inactive) | > 100 µM (inactive) | > 100 µM (inactive) | > 100 µM (inactive) | – | > 100 µM (inactive) | > 100 µM (inactive) | – | > 100 µM (inactive) | > 100 µM (inactive) | > 100 µM (inactive) | – | > 100 µM (inactive) | > 100 µM (inactive) | > 100 µM (inactive) | – | > 100 µM (inactive)
13 | Cc1noc(/N=C2\C=C(Nc3onc(C)c3C)C(=O)c3ccccc32)c1C | > 100 µM (inactive) | 2.88 µM (inactive) | 17.6 µM (inactive) | > 100 µM (inactive) | > 100 µM (inactive) | > 100 µM (inactive) | 36.7 µM (inactive) | > 100 µM (inactive) | > 100 | 8.81 µM (inactive) | > 100 µM (inactive) | > 100 µM (inactive) | > 100 µM (inactive) | – | 95.5 µM (inactive) | 16 µM (inactive) | > 100 µM (inactive) | > 100 µM (inactive)
14 | O=C(CCN(C(=O)O)S(=O)(=O)c1ccc(NC(=O)c2ccccc2)cc1)NC1CCCCC1 | 42.4 µM (inactive) | > 100 µM (inactive) | > 100 µM (inactive) | > 100 µM (inactive) | > 100 µM (inactive) | > 100 µM (inactive) | > 100 µM (inactive) | 16.3 µM (inactive) | 47.6 | 27.4 µM (inactive) | > 100 µM (inactive) | > 100 µM (inactive) | > 100 µM (inactive) | > 100 µM (inactive) | > 100 µM (inactive) | > 100 µM (inactive) | > 100 µM (inactive) | –
15 | COc1ccc2c(c1)[n+]([O-])c(-c1c(Cl)cccc1Cl)c(N)[n+]2[O-] | 44.4 µM (inactive) | 38.9 µM (inactive) | 85.3 µM (inactive) | 29.9 µM (inactive) | 87.3 µM (inactive) | 50.5 µM (inactive) | 23.4 µM (inactive) | 47.1 µM (inactive) | 31.8 | 53.6 µM (inactive) | > 100 µM (inactive) | – | 71.8 µM (inactive) | > 10 µM (inactive) | – | 61.7 µM (inactive) | 46.1 µM (inactive) | –
16 | C=C1C(=O)C23C(O)CC4C5(C)CCCC4(C(O)OC5)C2C(OC(C)=O)CC1C3O (centres undefined) | 4.97 µM (inactive) | 13.2 µM (inactive) | 34.5 µM (inactive) | 10.5 µM (inactive) | 9.02 µM (inactive) | 4.95 µM (inactive) | – | 2.91 µM (inactive) | 11.7 | 2.58 µM (inactive) | 18 µM (inactive) | 17.5 µM (inactive) | 14.3 µM (inactive) | 1.58 µM (inactive) | 5.11 µM (inactive) | 2.75 µM (inactive) | 10.6 µM (inactive) | –
17 | CC(C)C[C@H](NC(=O)[C@H](CC(C)C)NC(=O)[C@@H](Cc1c[nH]c2ccccc12)NC(=O)[C@H](Cc1ccccc1)NC(=O)[C@@H](Cc1c[nH]c2ccccc12)NC(=O)[C@H](CCC(N)=O)NC(=O)[C@H](CCC(N)=O)NC(=O)[C@H]1CCCN1C(=O)[C@@H](N)CCCCN)C(N)=O (H-K[dP]QQ[dW]F[dW]LL-NH2) | > 100 µM (inactive) | > 100 µM (inactive) | > 100 µM (inactive) | > 100 µM (inactive) | > 100 µM (inactive) | – | > 100 µM (inactive) | > 100 µM (inactive) | > 100 | > 100 µM (inactive) | > 100 µM (inactive) | > 100 µM (inactive) | > 100 µM (inactive) | > 100 µM (inactive) | > 100 µM (inactive) | > 100 µM (inactive) | > 100 µM (inactive) | > 100 µM (inactive)
